Active and inactive are the calls of the source.
Key:
[1] = biological target: T1, Tyrosyl-DNA phosphodiesterase 2 (Homo sapiens, UniProt O95551); assay: potency against TDP2 phosphodiesterase activity – biochemical, epi absorbance, IC50, dose response (AID 743297)
T1 sequence (O95551 whole entry): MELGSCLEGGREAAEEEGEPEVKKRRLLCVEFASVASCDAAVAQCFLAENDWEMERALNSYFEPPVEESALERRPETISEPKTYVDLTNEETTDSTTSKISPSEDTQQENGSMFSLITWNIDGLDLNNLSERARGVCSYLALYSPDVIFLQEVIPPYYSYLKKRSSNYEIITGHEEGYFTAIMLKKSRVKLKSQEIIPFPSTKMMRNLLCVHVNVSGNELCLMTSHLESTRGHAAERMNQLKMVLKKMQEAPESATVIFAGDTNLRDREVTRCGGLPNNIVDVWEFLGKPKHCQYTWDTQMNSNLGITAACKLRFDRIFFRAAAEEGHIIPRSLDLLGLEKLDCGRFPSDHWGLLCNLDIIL

Protein RecA = biological target: T2, Protein RecA (Mycobacterium tuberculosis, UniProt P9WHJ3); assay: Fluorescence Cell-Free Homogeneous Dose Retest to Identify Inhibitors of RecA-Intein Splicing Activity. [Related pubchem assays (depositor defined):AID2097, AID2223, AID489010, AID492950]; assay type: functional
T2 sequence (P9WHJ3 whole entry): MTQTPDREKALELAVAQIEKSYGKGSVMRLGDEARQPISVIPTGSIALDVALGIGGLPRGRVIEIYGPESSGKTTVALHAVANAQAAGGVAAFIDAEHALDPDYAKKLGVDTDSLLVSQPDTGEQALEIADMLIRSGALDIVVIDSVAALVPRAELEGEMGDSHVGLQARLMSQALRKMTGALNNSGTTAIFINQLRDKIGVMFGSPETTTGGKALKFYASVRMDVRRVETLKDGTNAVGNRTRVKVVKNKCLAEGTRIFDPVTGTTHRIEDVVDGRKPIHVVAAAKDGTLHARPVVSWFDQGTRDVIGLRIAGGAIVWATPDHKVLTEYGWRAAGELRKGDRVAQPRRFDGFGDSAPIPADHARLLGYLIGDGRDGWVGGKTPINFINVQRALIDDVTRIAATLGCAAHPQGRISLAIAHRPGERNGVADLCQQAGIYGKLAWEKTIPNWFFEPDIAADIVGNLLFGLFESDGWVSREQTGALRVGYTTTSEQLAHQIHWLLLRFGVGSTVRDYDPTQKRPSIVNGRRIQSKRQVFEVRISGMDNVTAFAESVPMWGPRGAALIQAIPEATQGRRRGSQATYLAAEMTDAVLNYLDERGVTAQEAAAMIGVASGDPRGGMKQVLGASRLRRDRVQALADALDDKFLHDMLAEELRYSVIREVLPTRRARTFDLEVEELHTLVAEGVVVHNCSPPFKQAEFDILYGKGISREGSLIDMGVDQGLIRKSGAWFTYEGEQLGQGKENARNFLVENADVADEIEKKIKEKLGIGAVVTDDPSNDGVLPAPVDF

[2] = biological target: T3, Sentrin-specific protease 7 (Homo sapiens, UniProt Q9BQF6); assay type: functional;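 also: Luminescence-based dose-response confirmation of ultra-high-throughput screening hits, measuring inhibition of SENP7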
T3 sequence (Q9BQF6 whole entry): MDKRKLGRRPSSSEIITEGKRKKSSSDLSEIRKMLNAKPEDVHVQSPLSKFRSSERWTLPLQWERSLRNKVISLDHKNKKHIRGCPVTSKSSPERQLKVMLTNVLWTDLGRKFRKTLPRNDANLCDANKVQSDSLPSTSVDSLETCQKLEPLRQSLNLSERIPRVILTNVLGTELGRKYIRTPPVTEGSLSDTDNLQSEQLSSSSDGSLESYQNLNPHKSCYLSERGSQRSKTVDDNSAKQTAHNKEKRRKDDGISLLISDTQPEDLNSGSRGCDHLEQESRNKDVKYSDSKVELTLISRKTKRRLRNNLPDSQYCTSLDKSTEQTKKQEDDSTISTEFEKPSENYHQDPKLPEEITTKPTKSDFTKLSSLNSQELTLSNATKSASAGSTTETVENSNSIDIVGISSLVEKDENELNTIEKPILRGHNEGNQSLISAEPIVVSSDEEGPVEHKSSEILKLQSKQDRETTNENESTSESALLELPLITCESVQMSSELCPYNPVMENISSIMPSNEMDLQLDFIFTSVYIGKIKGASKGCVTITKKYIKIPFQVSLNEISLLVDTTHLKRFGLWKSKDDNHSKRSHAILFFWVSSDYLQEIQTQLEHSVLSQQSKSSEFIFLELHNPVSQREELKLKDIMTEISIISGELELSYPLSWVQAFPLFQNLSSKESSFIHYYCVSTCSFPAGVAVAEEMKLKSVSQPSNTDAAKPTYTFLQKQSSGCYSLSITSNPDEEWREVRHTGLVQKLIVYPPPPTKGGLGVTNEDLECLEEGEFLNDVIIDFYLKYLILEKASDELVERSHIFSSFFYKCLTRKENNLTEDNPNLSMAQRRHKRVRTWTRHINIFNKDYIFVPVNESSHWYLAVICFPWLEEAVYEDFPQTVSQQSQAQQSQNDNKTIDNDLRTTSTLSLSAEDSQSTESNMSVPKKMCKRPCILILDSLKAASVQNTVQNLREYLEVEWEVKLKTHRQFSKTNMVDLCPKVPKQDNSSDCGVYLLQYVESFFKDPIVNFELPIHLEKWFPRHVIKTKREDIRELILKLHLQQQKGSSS

[3] = biological target: T4, Sentrin-specific protease 8 (Homo sapiens, UniProt Q96LD8); assay type: functional;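 also: luminescence read-out of SENP8 inhibition, dose-response confirmation following an ultra-high-throughput screen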
T4 sequence (Q96LD8 whole entry): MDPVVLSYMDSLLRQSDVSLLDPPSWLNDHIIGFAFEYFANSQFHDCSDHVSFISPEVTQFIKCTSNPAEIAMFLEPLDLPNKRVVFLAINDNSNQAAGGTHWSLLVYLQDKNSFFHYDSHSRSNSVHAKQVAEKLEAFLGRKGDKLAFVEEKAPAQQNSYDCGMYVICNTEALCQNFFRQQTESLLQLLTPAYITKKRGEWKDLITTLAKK

Row | Structure (SMILES) | IC50 [1] | EC50 (Protein RecA) | IC50 [2] | IC50 [3]
1 | Cc1ccccc1NC1=C/C(=N\S(=O)(=O)c2ccc(C(=O)O)cc2)c2ccccc2C1=O | 1.41 µM (active) | 3.67 µM (active) | – | –
2 | Cc1ccc(NC2=C/C(=N/S(=O)(=O)c3cccs3)c3ccccc3C2=O)cc1 | 3.3 µM (active) | 0.119 µM (active) | 0.359 µM (active) | 0.244 µM (active)
3 | COc1ccc(-c2cc(-c3ccc(C)cc3)[nH]n2)c(O)c1 | – | – | 6.63 µM (active) | 34.6 µM (active)
4 | O=C(Nc1ccc(C#Cc2ccccc2)cc1)C1CC1 | – | – | 3.38 µM (active) | > 100 µM (inactive)
5 | COC(=O)C[C@]1(C(=O)OC)CN(C#N)N(c2ccc(Cl)cc2)C12c1ccccc1-c1ccccc12 | – | 1.77 µM (active) | – | –
6 | CCCCn1c(NC(=O)c2ccco2)c(C(=O)OCC)c2nc3ccccc3nc21 | > 128 µM (inactive) | – | 10.1 µM (active) | 4.36 µM (active)
